Laboratory results as given in ChEMBL document CHEMBL1221217 (Nat Chem Biol, 2008).
Activity calls are given as the source filed them. The calls are words filed in the database; no cut-off is given here.

How the values were obtained:
[1] = target: Voltage-gated potassium channel subunit beta-2 (Rattus norvegicus) (UniProt P62483); test: Binding affinity to Kvbeta2 assessed as reduction of fluorescence by NADPH fluorescence spectrum based assay; parameters: scale not given: the % may be the effect or the level left
[2] = target: Potassium voltage-gated channel subfamily A member 1 (Rattus norvegicus) (UniProt P10499); test: Activation of KV1.1 expressed in Xenopus laevis oocytes coexpressing Kvbeta1 assessed as increase in channel current at 500 uM by electrophysiology method; conditions: Oocyte
[3] = target: Potassium voltage-gated channel subfamily A member 1 (Rattus norvegicus) (UniProt P10499); test: Activation of KV1.1 expressed in Xenopus laevis oocytes assessed as increase in steady state current normalized to initial inactivating current by electrophysiology method; conditions: Oocyte
[4] = target: Potassium voltage-gated channel subfamily A member 1 (Rattus norvegicus) (UniProt P10499); test: Activation of KV1.1 expressed in Xenopus laevis oocytes coexpressing Kvbeta1 assessed as increase in steady state current normalized to initial inactivating current at 500 uM by electrophysiology method; conditions: Oocyte
[5] = Induction of dissociation of KV1.1 T1 domain/rat Kvbeta2 I211R mutant complex at 2 mM by solid phase binding assay
[6] = Induction of dissociation of KV1.1 T1 domain/rat Kvbeta2 complex by solid phase binding assay
[7] = target: Potassium voltage-gated channel subfamily A member 1 (Rattus norvegicus) (UniProt P10499); test: Activation of KV1.1 expressed in Xenopus laevis oocytes coexpressing Kvbeta1 W155A mutant assessed as increase in steady state current normalized to initial inactivating current at 500 uM by electrophysiology method; conditions: Oocyte
[8] = target: Potassium voltage-gated channel subfamily A member 1 (Rattus norvegicus) (UniProt P10499); test: Activation of KV1.1 expressed in Xenopus laevis oocytes coexpressing Kvbeta1 assessed as increase in steady state current normalized to initial inactivating current by electrophysiology method

Potassium voltage-gated channel subfamily A member 1 (Rattus norvegicus), sequence (P10499 whole entry, looked up, the tested form may be a part): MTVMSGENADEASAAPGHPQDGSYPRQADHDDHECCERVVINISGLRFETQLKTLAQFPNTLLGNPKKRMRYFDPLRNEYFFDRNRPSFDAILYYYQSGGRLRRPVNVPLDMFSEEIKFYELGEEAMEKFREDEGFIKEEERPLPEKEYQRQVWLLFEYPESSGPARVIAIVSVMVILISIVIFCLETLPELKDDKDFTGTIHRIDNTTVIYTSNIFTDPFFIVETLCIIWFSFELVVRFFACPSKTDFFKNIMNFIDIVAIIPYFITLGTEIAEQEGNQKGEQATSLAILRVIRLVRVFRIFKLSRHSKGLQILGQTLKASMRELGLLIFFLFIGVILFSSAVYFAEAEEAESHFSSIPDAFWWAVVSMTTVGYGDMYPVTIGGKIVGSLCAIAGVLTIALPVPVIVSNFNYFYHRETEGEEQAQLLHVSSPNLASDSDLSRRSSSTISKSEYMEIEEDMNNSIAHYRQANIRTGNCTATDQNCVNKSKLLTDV
Voltage-gated potassium channel subunit beta-2 (Rattus norvegicus), sequence (P62483 whole entry, looked up): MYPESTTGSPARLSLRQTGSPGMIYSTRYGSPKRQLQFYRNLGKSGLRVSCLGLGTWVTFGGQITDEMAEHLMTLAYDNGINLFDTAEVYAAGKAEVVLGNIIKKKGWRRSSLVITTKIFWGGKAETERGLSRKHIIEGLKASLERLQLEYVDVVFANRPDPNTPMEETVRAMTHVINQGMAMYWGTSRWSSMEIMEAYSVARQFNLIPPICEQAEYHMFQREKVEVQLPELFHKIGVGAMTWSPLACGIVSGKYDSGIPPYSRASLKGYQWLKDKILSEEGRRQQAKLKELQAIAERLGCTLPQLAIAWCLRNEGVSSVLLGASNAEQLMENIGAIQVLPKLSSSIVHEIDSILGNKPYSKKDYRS

With C[C@]12CCC(=O)C=C1CC[C@@H]1[C@@H]2C(=O)C[C@@]2(C)[C@H]1CC[C@]2(O)C(=O)CO [CORTISONE] the Activity [1] was 21%, the Activity [2] was “Active” and the Activity [3] was 4.5%. The Activity [4] was 84%, the Activity [5] was “inactive” and the EC50 [6] was 68 µM. It also gave an Activity [7] of 93% and an EC50 [8] of 46 µM.
